Data as given in patent publication US12077503B2, “Substituted cyclic amides and their use as herbicides” (FMC CORPORATION, priority 2015, dated 2024).

Columns and labels:
Assay type in all cases: in vivo
[1] = test system: sedge, umbrella (small-flower umbrella sedge, Cyperus difformis); assay: Test B flooded paddy test; settings: Cyperus difformis, 250 g ai/ha, Flood; 0 to 100 scale where 0 is no effect and 100 is complete control; read-out: Sedge, Umbrella plant response rating
Summary of the method: (§1)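 Response scored visually against untreated controls, 0 = no effect and 100 = complete control, 13–15 d after treatment in the greenhouse. Compounds added to paddy water held 3 cm above soil surface. Treatment given at 2-leaf stage.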

[2] = test system: barnyardgrass (Echinochloa crus-galli); assay: Test B flooded paddy test; settings: Echinochloa crus-galli, 250 g ai/ha, Flood; 0 to 100 scale where 0 is no effect and 100 is complete control; read-out: Barnyardgrass plant response rating
Summary of the method: as §1

[3] = test system: ducksalad (Heteranthera limosa); assay: Test B flooded paddy test; settings: Heteranthera limosa, 250 g ai/ha, Flood; 0 to 100 scale where 0 is no effect and 100 is complete control; read-out: Ducksalad plant response rating
Summary of the method: as §1

rice (Oryra sativa) = assay: Test B flooded paddy test; settings: Oryza sativa, 250 g ai/ha, Flood; 0 to 100 scale where 0 is no effect and 100 is complete control; read-out: Rice plant response rating
Summary of the method: as §1

Kochia (Kochia scoparia) [4] = assay: Test A postemergence; settings: Bassia scoparia, post-emergence, 240 h; for pest or weed control at 125 g/ha: 125 g ai/ha; for pest or weed control at 500 g/ha: 500 g ai/ha, visual injury, 0 to 100 scale (0 no effect, 100 complete control)
Summary of the method: (§2)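 Ratings of 0 (no effect) to 100 (complete control) come from visual comparison with untreated controls roughly 10 d after treatment. Test chemicals, formulated in a non-phytotoxic solvent mixture with surfactant, were applied either as a preemergence directed soil spray on seeded soil or postemergence to one- to two-leaf plants 2 to 10 cm tall.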

[5] = test system: giant foxtail (Setaria faberii); assay: Test A postemergence; settings: Setaria faberi, post-emergence, 240 h; for pest or weed control at 125 g/ha: 125 g ai/ha; for pest or weed control at 500 g/ha: 500 g ai/ha, visual injury, 0 to 100 scale (0 no effect, 100 complete control)
Summary of the method: as §2

[6] = test system: barnyardgrass (Echinochloa crus-galli); assay: Test A postemergence; settings: Echinochloa crus-galli, post-emergence, 240 h, read-out: Plant response rating, Barnyardgrass; for pest or weed control at 125 g/ha: 125 g ai/ha, Postemergence, visual injury after approximately 10 d, 0 to 100 scale where 0 is no effect and 100 is complete control; for pest or weed control at 500 g/ha: 500 g ai/ha, postemergence, visual injury, 0 to 100 scale (0 no effect, 100 complete control), approx. 10 d
Summary of the method: as §2

[7] = test system: ragweed (common ragweed, Ambrosia elatior); assay: Test A postemergence; settings: Ambrosia artemisiifolia, post-emergence, 240 h; for pest or weed control at 125 g/ha: 125 g ai/ha; for pest or weed control at 500 g/ha: 500 g ai/ha, visual injury, 0 to 100 scale (0 no effect, 100 complete control)
Summary of the method: as §2

Kochia (Kochia scoparia) [8] = assay: Test A preemergence; settings: Bassia scoparia, pre-emergence, 240 h; for pest or weed control at 125 g/ha: 125 g ai/ha, Preemergence, visual injury rating after approximately 10 d, read-out: Kochia plant response rating (0 to 100 scale, 0 is no effect, 100 is complete control); for pest or weed control at 500 g/ha: 500 g ai/ha, preemergence, visual injury rating about 10 d after treatment, 0 to 100 scale (0 no effect, 100 complete control), read-out: Kochia plant response rating
Summary of the method: as §2

[9] = test system: giant foxtail (Setaria faberii); assay: Test A preemergence; settings: Setaria faberi, pre-emergence, 240 h; for pest or weed control at 125 g/ha: 125 g ai/ha, Preemergence, visual injury rating after approximately 10 d, read-out: Foxtail, Giant plant response rating (0 to 100 scale, 0 is no effect, 100 is complete control); for pest or weed control at 500 g/ha: 500 g ai/ha, preemergence, visual injury rating about 10 d after treatment, 0 to 100 scale (0 no effect, 100 complete control), read-out: Foxtail, Giant plant response rating
Summary of the method: as §2

[10] = test system: barnyardgrass (Echinochloa crus-galli); assay: Test A preemergence; settings: Echinochloa crus-galli, pre-emergence, 240 h; for pest or weed control at 125 g/ha: 125 g ai/ha, Preemergence, visual injury rating after approximately 10 d, read-out: Barnyardgrass plant response rating (0 to 100 scale, 0 is no effect, 100 is complete control); for pest or weed control at 500 g/ha: 500 g ai/ha, preemergence, visual injury rating about 10 d after treatment, 0 to 100 scale (0 no effect, 100 complete control), read-out: Barnyardgrass plant response rating
Summary of the method: as §2

[11] = test system: ryegrass, Italian (Italian ryegrass, Lolium multiflorum); assay: Test A preemergence; settings: Lolium multiflorum, pre-emergence, 240 h; for pest or weed control at 125 g/ha: 125 g ai/ha, Preemergence, visual injury rating after approximately 10 d, read-out: Ryegrass, Italian plant response rating (0 to 100 scale, 0 is no effect, 100 is complete control); for pest or weed control at 500 g/ha: 500 g ai/ha, preemergence, visual injury rating about 10 d after treatment, 0 to 100 scale (0 no effect, 100 complete control), read-out: Ryegrass, Italian plant response rating
Summary of the method: as §2

[12] = test system: pigweed (Amaranthus retroflexus); assay: Test A preemergence; settings: Amaranthus retroflexus, pre-emergence, 240 h; for pest or weed control at 125 g/ha: 125 g ai/ha, Preemergence, visual injury rating after approximately 10 d, read-out: Pigweed plant response rating (0 to 100 scale, 0 is no effect, 100 is complete control); for pest or weed control at 500 g/ha: 500 g ai/ha, preemergence, visual injury rating about 10 d after treatment, 0 to 100 scale (0 no effect, 100 complete control), read-out: Pigweed plant response rating
[13] = test system: ragweed (common ragweed, Ambrosia elatior); assay: Test A preemergence; settings: Ambrosia artemisiifolia, pre-emergence, 240 h; for pest or weed control at 125 g/ha: 125 g ai/ha, Preemergence, visual injury rating after approximately 10 d, read-out: Ragweed plant response rating (0 to 100 scale, 0 is no effect, 100 is complete control); for pest or weed control at 500 g/ha: 500 g ai/ha, preemergence, visual injury rating about 10 d after treatment, 0 to 100 scale (0 no effect, 100 complete control), read-out: Ragweed plant response rating
Summary of the method: as §2

[14] = Postemergence, visual injury after approximately 10 d, 0 to 100 scale where 0 is no effect and 100 is complete control, read-out: Plant response rating, Kochia
[15] = postemergence, approx. 10 d, read-out: Plant response rating, Kochia
[16] = Postemergence, visual injury after approximately 10 d, 0 to 100 scale where 0 is no effect and 100 is complete control, read-out: Plant response rating, Foxtail, Giant
[17] = postemergence, approx. 10 d, read-out: Plant response rating, Foxtail, Giant
[18] = Postemergence, visual injury after approximately 10 d, 0 to 100 scale where 0 is no effect and 100 is complete control, read-out: Plant response rating, Ragweed
[19] = postemergence, approx. 10 d, read-out: Plant response rating, Ragweed
[20] = postemergence, visual injury on 0 to 100 scale (0 no effect, 100 complete control), approx. 10 d, read-out: Kochia plant response rating
[21] = postemergence, visual injury on 0 to 100 scale (0 no effect, 100 complete control), approx. 10 d, read-out: Foxtail, Giant plant response rating
[22] = postemergence, visual injury on 0 to 100 scale (0 no effect, 100 complete control), approx. 10 d, read-out: Ragweed plant response rating

Row | Structure (SMILES) | pest or weed control at 250 g/ha [1] | pest or weed control at 250 g/ha [2] | pest or weed control at 250 g/ha [3] | pest or weed control at 250 g/ha (rice (Oryra sativa)) | pest or weed control at 500 g/ha (Kochia (Kochia scoparia) [4]; [15]) | pest or weed control at 500 g/ha [5, 17] | pest or weed control at 125 g/ha [6] | pest or weed control at 500 g/ha [6] | pest or weed control at 500 g/ha [7, 19] | pest or weed control at 125 g/ha (Kochia (Kochia scoparia) [8]) | pest or weed control at 500 g/ha (Kochia (Kochia scoparia) [8]) | pest or weed control at 125 g/ha [9] | pest or weed control at 500 g/ha [9] | pest or weed control at 125 g/ha [10] | pest or weed control at 500 g/ha [10] | pest or weed control at 125 g/ha [11] | pest or weed control at 500 g/ha [11] | pest or weed control at 125 g/ha [12] | pest or weed control at 500 g/ha [12] | pest or weed control at 125 g/ha [13] | further results
1 | Cc1ccc([C@H]2CN(C)C(=O)[C@@H]2C(=O)Nc2cccc(F)c2F)cc1Cl [Compound 1013] | 100% | 55% | 100% | 70% | 60% | 90% | 90% | 90% | 40% | 50% | 70% | 90% | 90% | 90% | 90% | 30% | 70% | 30% | 40% | 0% | pest or weed control at 125 g/ha (Kochia (Kochia scoparia) [4]; [14]): 40%; pest or weed control at 125 g/ha [5, 16]: 80%; pest or weed control at 125 g/ha [7, 18]: 0%; pest or weed control at 500 g/ha [13]: 0%
2 | COc1ccc([C@H]2CN(C)C(=O)[C@@H]2C(=O)Nc2cccc(F)c2F)cc1F [Compound 1021] | 0% | 80% | 98% | 15% | 70% | 90% | 100% | 100% | 60% | 70% | 90% | 100% | 100% | 100% | 100% | 0% | 20% | 70% | 80% | 70% | pest or weed control at 125 g/ha (Kochia (Kochia scoparia) [4]; [14]): 70%; pest or weed control at 125 g/ha [5, 16]: 90%; pest or weed control at 125 g/ha [7, 18]: 40%; pest or weed control at 500 g/ha [13]: 70%
3 | Cc1cc([C@H]2CN(C)C(=O)[C@@H]2C(=O)Nc2cccc(F)c2F)cc(C)c1Br [Compound 1024] | 0% | 40% | 70% | 0% | 60% | 90% | 90% | 90% | 0% | 30% | 40% | 90% | 90% | 70% | 90% | 0% | 90% | 30% | 50% | 0% | pest or weed control at 125 g/ha (Kochia (Kochia scoparia) [4]; [14]): 50%; pest or weed control at 125 g/ha [5, 16]: 70%; pest or weed control at 125 g/ha [7, 18]: 0%; pest or weed control at 500 g/ha [13]: 30%
4 | O=C1NC[C@H](c2ccc3c(c2)OCO3)[C@H]1C(=O)Nc1ccc(F)c(F)c1F [Compound 1027] | 0% | 40% | 100% | 30% | 30% | 60% | 70% | 90% | 0% | 80% | 90% | 40% | 90% | 90% | 90% | 30% | 0% | 0% | 40% | 70% | pest or weed control at 125 g/ha (Kochia (Kochia scoparia) [4]; [20]): 0%; pest or weed control at 125 g/ha [5, 21]: 20%; pest or weed control at 125 g/ha [7, 22]: 0%; pest or weed control at 500 g/ha [13]: 80%
5 | CN1CC[C@H](c2ccccc2)[C@@H](C(=O)Nc2ccccc2F)C1=O [Compound 1032] | 0% | 0% | 20% | 0% | 0% | 0% | 0% | 0% | 0% | 0% | 0% | 0% | 70% | 20% | 70% | 0% | 0% | 0% | 0% | 0% | pest or weed control at 125 g/ha (Kochia (Kochia scoparia) [4]; [20]): 0%; pest or weed control at 125 g/ha [5, 21]: 0%; pest or weed control at 125 g/ha [7, 22]: 0%; pest or weed control at 500 g/ha [13]: 0%
